Activity calls are given as the source filed them.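 The calls were made as follows: active = AC50, the dose giving half-maximal effect, exceeds a fixed cutoff for a compound that rescues yeast growth under heat; inactive = the rest, inconclusive results apart.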
Test system: S. cerevisiae Burl-1 ts mutant growth, BacTiter-Glo, 38.5C 24 h
Assay: restored growth of temperature-sensitive Burl-1 yeast – whole organism, S. cerevisiae, Burl-1 ts mutant, luminescence, counter-screen for SUMOylation pathway inhibitor project, dose response (AID 463199)

SMILES: CC(=O)OCC(OC(C)=O)C(OC(C)=O)C(OC(C)=O)C(=O)Nc1ccccc1 (centres undefined)
- AC50: > 42 µM (inactive)

SMILES: C/C(=N\NC(=O)c1cccc(N/N=C(\C)c2ccc([N+](=O)[O-])cc2)c1)c1ccc([N+](=O)[O-])cc1
- AC50: > 42 µM (inactive)

SMILES: O=C(NC1CCCCC1)N(Cc1cc2cc3c(cc2[nH]c1=O)OCCO3)C1CCCCC1
- AC50: > 42 µM (inactive)

SMILES: CN(C/C=C/c1ccccc1[N+](=O)[O-])Cc1ccccc1
- AC50: > 42 µM (inactive)

SMILES: COc1ccc(NC(=O)Nc2ccc(OC)cc2)cc1
- AC50: > 42 µM (inactive)

SMILES: COc1cc(CN2CCCC(CO)(Cc3cccc(Cl)c3)C2)cc2c1OCO2 (centres undefined)
- AC50: > 42 µM (inactive)

SMILES: CC(C)c1ccc(C2C(C(=O)c3ccco3)=C(O)C(=O)N2CCN2CCOCC2)cc1 (centres undefined)
- AC50: > 42 µM (inactive)

SMILES: CCOC(=O)NC1(Nc2ccc(C)cc2)Oc2ccccc2O1
- AC50: > 42 µM (inactive)

SMILES: CN(C(=S)NC1=CCS(=O)(=O)C1)C1CCCCC1
- AC50: > 42 µM (inactive)

SMILES: CCOC(=O)c1[nH]c2ccc(Br)cc2c1NC(=O)CCN1CCOCC1
- AC50: > 42 µM (inactive)

SMILES: Cc1c(=O)n(OCc2ccccn2)c2ccccc2[n+]1[O-]
- AC50: > 42 µM (inactive)

SMILES: COc1ccc(CCC(=O)NNC(=S)Nc2cccc(C(C)=O)c2)cc1
- AC50: > 42 µM (inactive)

SMILES: Nn1c(SCc2cc([N+](=O)[O-])cc3c2OCOC3)nnc1-c1ccccn1
- AC50: > 42 µM (inactive)

SMILES: CCc1ccc(-c2nc(SCC(=O)N3CCOCC3)n[nH]2)cc1
- AC50: > 42 µM (inactive)

SMILES: CCCOC(=O)c1c(NC(=O)/C=C/c2cnn(C)c2C)sc(C(=O)OC)c1C
- AC50: > 42 µM (inactive)

SMILES: CSc1nsc(SCC(=O)Nc2cccc(C(=O)O)c2)n1
- AC50: > 42 µM (inactive)

SMILES: CC(C)CCCN1CCN=C1Nc1ccccc1
- AC50: > 42 µM (inactive)

SMILES: Cc1cccc(N(C(=O)c2ccc(CN3CCOCC3)o2)C(C(=O)NC2CCCCC2)c2ccc(F)cc2)c1 (centres undefined)
- AC50: > 42 µM (inactive)

SMILES: CCOC(=O)N1CCN(C(=O)c2ccc3ccccc3c2)CC1
- AC50: > 42 µM (inactive)

SMILES: CCCCNS(=O)(=O)c1ccc2c(c1)oc(=O)n2CC(=O)OCC
- AC50: > 42 µM (inactive)

SMILES: Cc1nnc(NC(=O)c2cccc(S(=O)(=O)N3CCCC3)c2)s1
- AC50: > 42 µM (inactive)

SMILES: Oc1c(Br)cc(Br)cc1/C=N/n1c(-c2ccccc2)n[nH]c1=S
- AC50: > 42 µM (inactive)

SMILES: O=C1c2ccccc2C(=O)N1CCCCSc1nc2ccccc2c(=O)n1CCCN1CCOCC1
- AC50: > 42 µM (inactive)

SMILES: O=C(O)C1C2CCCCC2=C2CCCCC2C1C(=O)c1ccccc1 (centres undefined)
- AC50: > 42 µM (inactive)

SMILES: O=C(NC1CCCCC1)c1ccc2c(=O)n(CC3CCCO3)c(=O)[nH]c2c1 (centres undefined)
- AC50: > 42 µM (inactive)

SMILES: CC(OC(=O)c1cc(S(=O)(=O)N2CCOCC2)ccc1F)C(=O)NCc1ccc2c(c1)OCO2 (centres undefined)
- AC50: > 42 µM (inactive)

SMILES: CC1c2cc3c(cc2CCN1CC(=O)Nc1ccccc1)OCCCO3 (centres undefined)
- AC50: > 42 µM (inactive)

SMILES: Cc1ccc(NC(=S)NC(NC(=O)c2ccccc2C)C(Cl)(Cl)Cl)c(C)c1 (centres undefined)
- AC50: > 42 µM (inactive)

SMILES: CCc1ccc(S(=O)(=O)NCc2cccnc2)cc1
- AC50: > 42 µM (inactive)

SMILES: COc1ccccc1C(=O)OCC(=O)NC(=O)NCc1ccccc1
- AC50: > 42 µM (inactive)

SMILES: COc1c(C)cc(S(=O)(=O)NC2CC(C)(C)NC(C)(C)C2)c(C)c1C
- AC50: > 42 µM (inactive)

SMILES: Cc1ccc2nc(/C(C#N)=C\c3cc(O)ccc3[N+](=O)[O-])[nH]c2c1
- AC50: > 42 µM (inactive)

SMILES: CCOc1ccccc1CN1CCN(Cc2ccon2)CC1CCO (centres undefined)
- AC50: > 42 µM (inactive)

SMILES: COc1ccccc1NC(=S)N(Cc1ccco1)Cc1cc2cccc(C)c2[nH]c1=O
- AC50: > 42 µM (inactive)

SMILES: O=S(=O)(NCc1ccc(Cl)cc1)c1cnc[nH]1
- AC50: > 42 µM (inactive)

SMILES: Cc1cc(C)c[n+](-c2nc3ccccc3nc2[N-]S(=O)(=O)c2ccc(Br)s2)c1
- AC50: > 42 µM (inactive)

SMILES: COC(=O)C(CC(C)C)NC(=O)CNC(=O)c1ccccc1C (centres undefined)
- AC50: > 42 µM (inactive)

SMILES: COC(=O)CN(C(=S)Nc1ccc(F)cc1)C1CC(=O)N(c2ccccc2)C1=O (centres undefined)
- AC50: > 42 µM (inactive)

SMILES: Cc1ccc(O)c(C)c1
- AC50: > 42 µM (inactive)

SMILES: NC(=O)CN1CCOCCN(CC(N)=O)CCOCC1
- AC50: > 42 µM (inactive)

SMILES: COc1ccccc1NC(=O)N1CCN(C(=O)Nc2ccccc2OC)CC1
- AC50: > 42 µM (inactive)

SMILES: CCOc1ccc(NS(=O)(=O)c2ccc(C(=O)NCc3cccnc3)cc2)cc1
- AC50: > 42 µM (inactive)

SMILES: CCc1nnc(NC(=O)c2cccc(S(=O)(=O)N3CCN(c4ccccc4)CC3)c2)s1
- AC50: > 42 µM (inactive)

SMILES: CC(C)Oc1ccc(CCC(=O)NNC(=O)c2ccccc2C(=O)O)cc1
- AC50: > 42 µM (inactive)

SMILES: On1c(-c2ccccc2Cl)nc2ncccc21
- AC50: > 42 µM (inactive)

SMILES: O=c1c2c3c(sc2n2cnnc2n1-c1ccccc1)N(Cc1ccccc1)CCC3
- AC50: > 42 µM (inactive)

SMILES: O=C(NCc1nc(-c2ccccc2)no1)c1cccs1
- AC50: > 42 µM (inactive)

SMILES: Cn1cc(Br)c(C(=O)Nc2nccs2)n1
- AC50: > 42 µM (inactive)

SMILES: COC(=O)c1sc2ccccc2c1NC(=O)c1ccc(S(=O)(=O)N2CCCC(C)C2)cc1 (centres undefined)
- AC50: > 42 µM (inactive)

SMILES: CCN(CC1COc2ccccc2O1)C(=S)NCCCN(C)C (centres undefined)
- AC50: > 42 µM (inactive)

SMILES: CC(C)C/C(=N/O)c1c[nH]c2ccccc12
- AC50: > 42 µM (inactive)

SMILES: CS(=O)(=O)N(CCc1ccccc1)CC(=O)NCc1cccnc1
- AC50: > 42 µM (inactive)

SMILES: c1ccc2c(c1)OCCOCCOc1ccccc1OCCOCCO2
- AC50: > 42 µM (inactive)

SMILES: C(=N\N1CCN(C2c3ccccc3-c3ccccc32)CC1)/c1ccncc1
- AC50: > 42 µM (inactive)

SMILES: Cc1nc2ccccc2n(CC(=O)Nc2cc(Cl)cc(Cl)c2)c1=O
- AC50: > 42 µM (inactive)

SMILES: CCN(CC)CCCN1C(=O)C(=O)/C(=C(/O)c2ccccc2)C1c1cc(OC)ccc1OC (centres undefined)
- AC50: > 42 µM (inactive)

SMILES: COc1cccc(/C=N/n2cnc3ccccc32)c1OC
- AC50: > 42 µM (inactive)

SMILES: CCCc1cc(=O)oc2c3c(c4c(c12)OC(C)(C)C=C4)OC(C)C(C)C3O (centres undefined)
- AC50: > 42 µM (inactive)

SMILES: CCCN1C(=O)c2ccc(C(=O)Nc3nccs3)cc2C1=O
- AC50: > 42 µM (inactive)

SMILES: Nc1nc(SCc2nc3scc(-c4cccs4)c3c(=O)[nH]2)n[nH]1
- AC50: > 42 µM (inactive)

SMILES: O=C(NCc1ccccc1Cl)c1ccc2c(c1)OCO2
- AC50: > 42 µM (inactive)

SMILES: COc1ccc(-n2nc(C(=O)NCC(=O)N3CCCC3)c3ccccc3c2=O)c(OC)c1
- AC50: > 42 µM (inactive)

SMILES: COc1ccccc1NC(=S)N(Cc1ccccc1)Cc1cccs1
- AC50: > 42 µM (inactive)

SMILES: COc1ccc2c(c1)OC[C@H]1[C@H]2N2C(=O)c3cc(C)ccc3NC(=O)[C@@]2(C)[C@H]1c1ccccc1
- AC50: > 42 µM (inactive)

SMILES: Clc1cnc(Oc2ccc(Oc3ncc(Cl)cc3Cl)cc2)c(Cl)c1
- AC50: > 42 µM (inactive)

SMILES: CSc1nnc2c3cc(C)ccc3n(Cc3ccccc3)c2n1
- AC50: > 42 µM (inactive)

SMILES: N#CC(C#N)=C1C=CC=CN1/C(=C\c1ccccc1Cl)C(=O)c1ccccc1
- AC50: > 42 µM (inactive)

SMILES: CC(=O)Nc1nn(C)c2nc3ccc(C)cc3cc12
- AC50: > 42 µM (inactive)

SMILES: CCN1C(=NCC(C)C)N[C@@H](c2cccc(C(F)(F)F)c2)C(C(=O)OC)=C1C
- AC50: > 42 µM (inactive)

SMILES: Cc1cnc(NC(=O)CSc2nc3ccccc3s2)s1
- AC50: > 42 µM (inactive)

SMILES: O=C(CSc1ccc(Br)cc1)Nc1ccccc1N1CCOCC1
- AC50: > 42 µM (inactive)

SMILES: COc1ccc2nc(NC(=O)c3cc(S(=O)(=O)N4CCOCC4)ccc3C)sc2c1
- AC50: > 42 µM (inactive)

SMILES: Cc1cc(NC(=O)c2ccccc2F)n(C(C)(C)C)n1
- AC50: > 42 µM (inactive)

SMILES: CC(=O)/C=C/n1c(=S)oc2ccccc21
- AC50: > 42 µM (inactive)

SMILES: Cc1ccccc1-n1ncc2c([N+](=O)[O-])cc([N+](=O)[O-])cc21
- AC50: > 42 µM (inactive)

SMILES: CSc1nc2ccc(NC(=O)c3c(F)cccc3F)cc2s1
- AC50: > 42 µM (inactive)

SMILES: CC(=O)Oc1cccc(N2C(=O)c3ccc(C(=O)Nc4c[nH]c(=O)[nH]c4=O)cc3C2=O)c1
- AC50: > 42 µM (inactive)

SMILES: Cc1[nH]c(C)c(S(=O)(=O)NCC(C)c2ccccc2)c1C(=O)N1CCCCC1 (centres undefined)
- AC50: > 42 µM (inactive)

SMILES: CCCNC(=O)COC(=O)CCC(=O)c1cccs1
- AC50: > 42 µM (inactive)

SMILES: COC(=O)C1(Cc2cc(-c3ccccc3)no2)CCN(C(=O)OC(C)(C)C)CC1
- AC50: > 42 µM (inactive)

SMILES: COc1ccccc1NC(=O)COC(=O)CC(C)(C)CC1=NS(=O)(=O)c2ccccc2N1
- AC50: > 42 µM (inactive)

SMILES: CCS(=O)c1ccccc1C(=O)O (centres undefined)
- AC50: > 42 µM (inactive)

SMILES: Cn1c(SCC(=O)Nc2nnc(-c3ccccc3)o2)nnc1C1CC1
- AC50: > 42 µM (inactive)

SMILES: CN(C)S(=O)(=O)c1cccc(NC(=O)COc2nc3ccccc3nc2N2CCOCC2)c1
- AC50: > 42 µM (inactive)

SMILES: O=C(COc1ccccc1Cl)c1ccc[nH]1
- AC50: > 42 µM (inactive)

SMILES: O=C1CCC(=O)N1CCOP1(=O)COc2ccccc2OC1
- AC50: > 42 µM (inactive)

SMILES: CCCC(=O)Oc1c(S(=O)(=O)c2ccc(C)cc2)c(C)nn1C(C)(C)C
- AC50: > 42 µM (inactive)

SMILES: CC(C)(C)Cc1nc(-c2ccccn2)no1
- AC50: > 42 µM (inactive)

SMILES: C=C(C)C(=O)OC1(C(F)(F)F)Oc2cc(C)ccc2NC1=O (centres undefined)
- AC50: > 42 µM (inactive)

SMILES: CCc1c(C)nc(N2CCN(Cc3ccccc3)CC2)[nH]c1=O
- AC50: > 42 µM (inactive)

SMILES: CC(C)(CNC(=O)c1cccs1)CNC(=O)c1cccs1
- AC50: > 42 µM (inactive)

SMILES: O=C(OCC(=O)N1CCN(Cc2ccccc2)CC1)c1ccc(Cl)cc1
- AC50: > 42 µM (inactive)

SMILES: CCc1c(C(=O)N2CCN(c3ccccc3F)CC2)[nH]c(C)c1C(C)=O
- AC50: > 42 µM (inactive)

SMILES: CC1(C)CC(=O)C2=C(C1)OC(N)=C(C#N)C21C(=O)N(CN2CCOCC2)c2ccccc21 (centres undefined)
- AC50: > 42 µM (inactive)

SMILES: CCN(CC)C(=O)Cn1cc(S(=O)(=O)CC(=O)NCCc2ccc(OC)c(OC)c2)c2ccccc21
- AC50: > 42 µM (inactive)

SMILES: COC(=O)c1ccc(CSc2nnnn2-c2ccccc2)o1
- AC50: > 42 µM (inactive)

SMILES: CC(C)(C)C(=O)C(Cl)C(=O)Nc1ccccc1 (centres undefined)
- AC50: > 42 µM (inactive)

SMILES: C=CCNc1nnc(SC2CC(=O)N(c3ccc(OCCC)cc3)C2=O)s1 (centres undefined)
- AC50: > 42 µM (inactive)

SMILES: CCOC(=O)N1CCN(C(=O)c2ccc(CS(=O)(=O)c3c(Cl)cccc3Cl)o2)CC1
- AC50: > 42 µM (inactive)

— PubChem BioAssay AID463199 (Broad Institute, 2010)
